{
  "source": "patent US4312857A",
  "about": "“Novel derivatives of beta-endorphin, intermediates therefor and compositions and methods employing said derivatives” (The United States of America as represented by the Veterans, priority 1977, dated 1982)",
  "origin": "cited, not measured here",
  "key": {"[1]": {"test_system": "partially purified brain opiate receptor sites"}, "rat": {"test_system": "rat", "conditions": "injected directly into the brain of the rat"}},
  "data": [
    {"substance": "H-Tyr-Gly-Gly-Phe-Met-OH [methionine enkephalin]", "values": [
      {"measurement": "binding to partially purified brain opiate receptor sites", "setting": "[1]", "result": "binds stereo-specifically"},
      {"measurement": "analgesic effect", "setting": "rat", "result": "weak analgesic agent of short duration"}
    ]}
  ]
}
